Source: patent US7528225B2, “Peptide epitopes of apolipoprotein B” (Forskarpapatent I Syd, priority 2001, dated 2009)
“Also recorded” adds a separate entry of the source.

Tests used:
[1] = tested on: atherosclerosis in apo E knockout mice; assay: Peptide immunization of Apo E (−/−) mice on high cholesterol diet: atherosclerotic plaque size and composition; details: for Effect on atherosclerosis in the aorta: immunization of apo E knockout mice with single peptide sequence or mixture (Table B); for Atherosclerotic plaque in the descending aorta, en face oil red O, in comparison to control (in words): Apo E (−/−) mice vs Alum control; for mean collagen content in the aortic sinus plaques: Trichrome staining; for mean collagen content in the aortic sinus plaques / Total plaque size in aortic sinus / % of plaque in aorta (flat prep.) / Oil red O (+) area (% of aortic sinus plaque) / Aortic arch plaque size: mean ± Std; for Total plaque size in aortic sinus: Apo E (−/−) mice, sacrifice at 25 weeks; for % of plaque in aorta (flat prep.): descending thoracic and abdominal aorta, en face, oil red O; for Oil red O (+) area (% of aortic sinus plaque): lipid content of aortic sinus plaque
Description: Apo E (−/−) mice received subcutaneous primary immunization at 6-7 weeks of age, followed by an intra-peritoneal booster 3 weeks later. Mice were fed high cholesterol diet from the onset of immunization and continued until sacrifice at the age of 25 weeks.
Alum was used as immunoadjuvant and mixed with peptide conjugate with 1:1 dilution in volume. The amount of peptide in each immunization was 33 μg/100 μl per injection.
Apo E (−/−) mice from the Jackson Laboratories (Bar Harbor, Me.) received subcutaneous primary immunization at 6-7 weeks of age, followed by an intra-peritoneal booster 3 weeks later. Mice were fed high cholesterol diet from the onset of immunization and continued until sacrifice at the age of 25 weeks. Blood samples were collected 2 weeks after booster and at the time of sacrifice. Mice receiving Alum served as control. […] At the time of sacrifice, mice were anesthetized by inhalation Enflurane. Plasma was obtained by retro-orbital bleeding prior to sacrifice.
To evaluate the effect of peptide immunization on atherosclerosis formation, the plaque size at aortic sinus was assessed, aortic arch and descending thoracic and abdominal aorta. After the heart and aortic tree were perfused with normal saline at physiological pressure, the heart and proximal aorta were excised and embedded in OCT compound (Tissue-Tek) and frozen sectioned. Serial 6-μm-thick sections were collected from the appearance of at least 2 aortic valves to the disappearance of the aortic valve leaflets for aortic sinus plaque evaluation. Typically 3 consecutive sections were on one slide and a total of 25-30 slides were collected from one mouse and every fifth slide was grouped for staining. Ascending aorta and aortic arches upto left subclavian artery were also sectioned and processed similarly. Descending thoracic and abdominal aorta were processed separately for en face evaluation of plaque formation after oil red O staining.
Chicken egg albumin (Sigma) in a concentration of 0.8 g/ml water was mixed 1:1 with glycerol. Sodium azide was added to make a final concentration of sodium azide 0.2%. After descending thoracic and abdominal aorta was cleaned off surrounding tissue and fat, the segment of aorta from left subclavian artery to the level of renal artery was then carefully removed for overnight fixation in Histochoice (Amresco). Aorta was then carefully opened longitudinally and placed with luminal side up on a slide freshly coated with egg albumin solution. After albumin solution became dry, the aorta was stained with Oil red O to assess the extent of atherosclerosis with computer-assisted histomorphometry.

Apo E (−/−) mice = assay: Antibody titer against immunized peptide after immunization (mouse serum ELISA); format: in vivo; details: mouse serum 1/50; immunized group; mean ± Std
Description: Antibody titer measurement. To measure the antibody response after peptide immunization, an ELISA was developed. Antibody titer against immunized peptide was measured using blood collected at 2 weeks after booster and at sacrifice. Antibody response against 3 peptides was also determined in Alum group at the same time-points. In brief, native synthetic peptides diluted in PBS pH 7.4 (20 μg/ml) were absorbed to microtiter plate wells (Nunc MaxiSorp, Nunc, Roskilde, Denmark) in an overnight incubation at 4° C. […] After rinsing, deposition of antibodies directed to the peptides was detected by using biotinylated rabbit anti-mouse Ig antibodies (Dako A/S, Glostrup, Denmark) appropriately diluted in TBS-T. After another incubation for 2 h at room temperature the plates were washed and the bound biotinylated antibodies were detected by alkaline phosphatase conjugated streptavidin (Sigma), incubated for 2 h at room temperature. Using phosphatase substrate kit (Pierce) developed the colour reaction and the absorbance at 405 nm was measured after 1 h of incubation at room temperature. Mean values were calculated after the background was subtracted.

In the case of IEIGLEGKGFEPTLEALFGK [Peptide 45], the “Effect on atherosclerosis in the aorta” value [1] is reported as −47.4%.

In the case of ATRFKHLRKYTYNYQAQSSS [Peptide 2], the “Atherosclerotic plaque in the descending aorta, en face oil red O, in comparison to control (in words)” value (“Atherosclerotic plaque” for short) ([1]; listed as peptide No. 2) is reported as “substantially reduced atherosclerosis; also recorded: significantly reduced atherosclerotic burden”, the “mean collagen content in the aortic sinus plaques” value [1] is reported as 40.0±7.7% and the “Effect on atherosclerosis in the aorta” value [1] is reported as −67.7%. The “macrophage infiltration in the aortic sinus plaques (MOMA-2)” value ([1]; immunohistochemistry) was “significantly reduced macrophage infiltration” and the “Increase of antibody titer against immunized peptide after immunization” value (Apo E (−/−) mice) was 2.4±1.0 fold.

With FPDLGQEVALNANTKNQKIR [Peptide 240] the “Effect on atherosclerosis in the aorta” value [1] was 0%.

KTTKQSFDLSVKAQYKKNKH [Peptide 210] was tested, and the “Effect on atherosclerosis in the aorta” value [1] was −57.9%.

With VISIPRLQAEARSEILAHWS [Peptide 74] the “Effect on atherosclerosis in the aorta” value [1] was −31.0%.

EEEMLENVSLVCPKDATRFK [Peptide 1] was tested, and the “Atherosclerotic plaque” value ([1]; listed as Peptide No 1) was “did not produce a significant reduction in atherosclerosis”, the “Total plaque size in aortic sinus” value [1] was 0.48 ± 0.14 mm^2 and the “mean collagen content in the aortic sinus plaques” value [1] was 35.6±8.5%. The “% of plaque in aorta (flat prep.)” value [1] was 17 ± 4.3%, the “Effect on atherosclerosis in the aorta” value [1] was −15.4% and the “Oil red O (+) area (% of aortic sinus plaque)” value [1] was 32.0 ± 8.1%. The “Aortic arch plaque size” value [1] was 0.054 ± 0.027 mm^2, the “Effect of immunisation on the development of atherosclerosis (in words)” value ([1]; summary statement) was “lacks total effect” and the “Increase of antibody titer against immunized peptide after immunization” value (Apo E (−/−) mice) was 6.1±3.1 fold.

For HTFLIYITELLKKLQSTTVM [Peptide 301], the “Atherosclerotic plaque” value [1] was “substantially reduced atherosclerosis”, the “Total plaque size in aortic sinus” value [1] was 0.46 ± 0.16 mm^2 and the “% of plaque in aorta (flat prep.)” value [1] was 8.9 ± 2.2 %. For the same sequence, the “Effect on atherosclerosis in the aorta” value [1] was −55.2%, the “Oil red O (+) area (% of aortic sinus plaque)” value [1] was 23.8 ± 4.1% and the “Aortic arch plaque size” value [1] was 0.050 ± 0.024 mm^2.
